{"source": "patent US6319929A", "about": "“Suksdorfin analogs, compositions thereof, and methods for making and using thereof” (priority 1998, dated 2001)", "key": {"[1]": {"tested_on": "HIV-1 replication in fresh elutriated monocytes", "assay": "HIV-1 infection of primary elutriated monocytes (p24 antigen)", "assay_type": "cell-based", "excerpt": "In order to determine if compound 16 suppressive activity was limited to only fresh T cells infected with HIV-1, elutriated monocytes were infected with HIV-1 and then cultured with various concentrations of compound 16 or AZT. […] This illustrates that the effect of the drμg is not only limited to T cells but also can effect virally infected monocytes."}, "uninfected H9 cells": {"tested_on": "uninfected H9 cells", "assay": "Combination study of suksdorfin with AZT, ddI and ddC: toxicity to uninfected H9 cells", "assay_type": "cell-based", "conditions": "for IC50: Homo sapiens", "description": "Pharm. Asso. […] Aliquots ( ml) were placed in wells of 24-well culture plates containing an equal volume of test compound (diluted in the appropriate culture medium). After incubation for 4 days at 37° C., cell density of uninfected cultures was determined by counting cells in a Coulter counter to assess toxicity of the test compound. A p24 antigen ELISA assay was used to determine the level of virus released in the medium of the HIV-infected cultures. The p24 antigen assay uses a HIV-1 anti-p24 specific monoclonal antibody as the capture antibody coated-on 96-well plates. Following a sample incubation period, rabbit serum containing antibodies for HIV-1 p24 is used to tag any p24 \"captured\" onto the microtiter well surface. […] The cut-off for the p24 ELISA assay is 12. pg/ml. P24 in the culture medium was quantitated against a standard curve containing known amounts of p24. The effective (EC50) and inhibitory (IC50) concentrations (for anti-HIV activity and cytotoxicity, respectively) were determined graphically.\nCombination Study: The experimental design is identical to the growth inhibition assay except that various concentrations of AZT, ddI or ddC were also added to cultures of acutely HIV-1 infected H9 cells that either have or have no received different concentrations of suksdorfin."}, "[2]": {"tested_on": "HIV-1 replication in PBMCs", "assay": "HIV-1 replication in acutely infected PBMCs", "assay_type": "cell-based, HIV-1 (IIIB)", "conditions": "for EC50: Human immunodeficiency virus 1, PBMC, PBMCs; for suppression of acute HIV-1 replication in PBMCs (in words): fresh PBMCs", "description": "Suksdorf in was tested on peripheral blood mononuclear cells (PBMCS) which were stimulated for 3 days with PHA (1 .parallel.g/ml). The cells were collected and then infected with the 20X stock HIV-1 (IIIB). This is the same virus that is used in the drug screening assay. PBMCs were used for the following reasons: (1) It is another type of T cell infection. (2) PMBCs are freshly isolated cells not a cell line as are H9 cells. (3) We need to know if the effects of suksdorfin were limited to only an acute HIV-1 infection of a T cell line such as H9 cells. After the cells were infected with HIV-1, the cells were washed and then placed in medium with the cytokine, interleukin 2 (IL-2). IL-2 is needed to keep the cells activated which is necessary also for virus replication.\n(§1) As part of efforts to biologically characterize 16 the monocytic cell line, U937 and peripheral blood mononuclear cells (PBMCs) were separately infected with HIV-1 and then had various concentrations of the analog added for 4 days of culture.\n(§2) HIV Growth Inhibition Assay: The T cell line, H9, and the promonocytic cell line, U937, were maintained separately in continuous culture with complete medium (RPMI 1640 and […] fetal calf serum (FCS) at 5% CO2 and 37° C. Cell lines were used in experiments only when in log phase of growth; whereas, uninfected peripheral blood mononuclear cells (PBMCs) were first stimulated with PHA (1 μg/ml) for 3 days. All cell targets were incubated with HIV-1 (IIIB isolate, TCID50 10 ^4 IU/mi, at a multiplicity of infection of 0.1-0.01 IU/cell) for 1 hour at 37° C. and 5% CO2. The cell lines and PBMCs were washed thoroughly to remove unabsorbed virions and resuspended at 4×10^5 cells/ml in complete medium or complete medium with 10% v/v interleukin […] IL-2, respectively. Aliquots ( ml) were placed in wells of 24-well culture plates containing an equal volume of test compound (diluted in the appropriate culture medium). After incubation for 4 days at 37° C., cell density of uninfected cultures was determined by counting cells in a Coulter counter to assess toxicity of the test compound. A p24 antigen ELISA assay was used to determine the level of virus released in the medium of the HIV-infected cultures. The p24 antigen assay uses a HIV-1 anti-p24 specific monoclonal antibody as the capture antibody coated-on 96-well plates. Following a sample incubation period, rabbit serum containing antibodies for HIV-1 p24 is used to tag any p24 \"captured\" onto the microtiter well surface. Peroxidase conjugated goat anti-rabbit serum is then used to tag HIV-1 p24 specific rabbit antibodies which have complexed with captured p24. […] The cut-off for the p24 ELISA assay is 12. pg/ml. P24 in the culture medium was quantitated against a standard curve containing known amounts of p24. The effective (EC50) and inhibitory (IC50) concentrations (for anti-HIV activity and cytotoxicity, respectively) were determined graphically. Both the EC50 and IC50 values were calculated by plotting drug concentration versus percent inhibition, and then identifying a 50% inhibition value from the graph."}, "[3]": {"tested_on": "HIV-1 replication in U937 cells", "assay": "HIV-1 replication in acutely infected promonocytic U937 cells", "assay_type": "cell-based, HIV-1 (IIIB)", "conditions": "for EC50: Human immunodeficiency virus 1, U-937", "description": "Suksdorfin was also tested on an acute HIV-1 infection of the promonocytic cell line, U937. This was done again to determine drug specificity but this time on a monocytic cell line.\nas §1, §2"}}, "note": "Values joined by “and” are separate entries in the source; they are usually repeats but may differ in a detail not shown here. Equal values may be shown once. Read-outs that look alike come from different tables or passages of the source."}
{"smiles": "Cc1cn([C@H]2C[C@H](N=[N+]=[N-])[C@@H](CO)O2)c(=O)[nH]c1=O", "note": "[AZT, azidothymidine, reference compound]", "values": [{"measurement": "p24 antigen", "setting": "[1]; Day 17, 0.0001 μg/ml", "value": 83, "unit": "pg/mL"}, {"measurement": "p24 antigen", "setting": "[1]; Day 17, 0.001 μg/ml", "value": 100, "unit": "pg/mL"}, {"measurement": "p24 antigen", "setting": "[1]; Day 17, 0.01 μg/ml", "value": 7, "unit": "pg/mL"}, {"measurement": "p24 antigen", "setting": "[1]; Day 17, 0.1 μg/ml", "value": 5, "unit": "pg/mL"}, {"measurement": "p24 antigen", "setting": "[1]; Day 17, 1 μg/ml", "value": 2, "unit": "pg/mL"}, {"measurement": "p24 antigen", "setting": "[1]; Day 17, 10 μg/ml", "value": 0.1, "unit": "pg/mL"}, {"measurement": "p24 antigen", "setting": "[1]; Day 28, 0.0001 μg/ml", "value": 0, "unit": "pg/mL"}, {"measurement": "p24 antigen", "setting": "[1]; Day 28, 0.001 μg/ml", "value": 0, "unit": "pg/mL"}, {"measurement": "p24 antigen", "setting": "[1]; Day 28, 0.01 μg/ml", "value": 0, "unit": "pg/mL"}, {"measurement": "p24 antigen", "setting": "[1]; Day 28, 0.1 μg/ml", "value": 0, "unit": "pg/mL"}, {"measurement": "p24 antigen", "setting": "[1]; Day 28, 1 μg/ml", "value": 0, "unit": "pg/mL"}, {"measurement": "p24 antigen", "setting": "[1]; Day 28, 10 μg/ml", "value": 0, "unit": "pg/mL"}, {"measurement": "IC50", "setting": "uninfected H9 cells; H9", "value": "> 1", "unit": "µg/mL"}, {"measurement": "IC50", "setting": "uninfected H9 cells; H9, read-out: IC50 (μM)^a", "value": "> 1", "unit": "µg/mL"}]}
{"smiles": "CC1(C)Oc2ccc3ccc(=O)oc3c2[C@@H](OC(=O)[C@@]23CC[C@@](C)(C(=O)O2)C3(C)C)[C@H]1OC(=O)[C@@]12CC[C@@](C)(C(=O)O1)C2(C)C", "note": "[Compound 16, 3',4'-Di-O-(-)-Camphanoyl-(+)-cis-Khellactone]", "values": [{"measurement": "suppression of HIV-1 replication in fresh elutriated monocytes (in words)", "setting": "[1]", "value": "able to suppress HIV-1 replication in fresh elutriated monocytes"}, {"measurement": "p24 antigen", "setting": "[1]; Day 17, 0.0000102 μg/ml", "value": 49, "unit": "pg/mL"}, {"measurement": "p24 antigen", "setting": "[1]; Day 17, 0.0000512 μg/ml", "value": 52, "unit": "pg/mL"}, {"measurement": "p24 antigen", "setting": "[1]; Day 17, 0.000256 μg/ml", "value": 70, "unit": "pg/mL"}, {"measurement": "p24 antigen", "setting": "[1]; Day 17, 0.00128 μg/ml", "value": 306, "unit": "pg/mL"}, {"measurement": "p24 antigen", "setting": "[1]; Day 17, 0.0064 μg/ml", "value": 66, "unit": "pg/mL"}, {"measurement": "p24 antigen", "setting": "[1]; Day 17, 0.032 μg/ml", "value": 94, "unit": "pg/mL"}, {"measurement": "p24 antigen", "setting": "[1]; Day 17, 0.16 μg/ml", "value": 7, "unit": "pg/mL"}, {"measurement": "p24 antigen", "setting": "[1]; Day 17, 0.8 μg/ml", "value": 6, "unit": "pg/mL"}, {"measurement": "p24 antigen", "setting": "[1]; Day 17, 4 μg/ml", "value": 6, "unit": "pg/mL"}, {"measurement": "p24 antigen", "setting": "[1]; Day 17, 20 μg/ml", "value": 5, "unit": "pg/mL"}, {"measurement": "p24 antigen", "setting": "[1]; Day 28, 0.0000102 μg/ml", "value": 1536, "unit": "pg/mL"}, {"measurement": "p24 antigen", "setting": "[1]; Day 28, 0.0000512 μg/ml", "value": 824, "unit": "pg/mL"}, {"measurement": "p24 antigen", "setting": "[1]; Day 28, 0.000256 μg/ml", "value": 760, "unit": "pg/mL"}, {"measurement": "p24 antigen", "setting": "[1]; Day 28, 0.00128 μg/ml", "value": 208, "unit": "pg/mL"}, {"measurement": "p24 antigen", "setting": "[1]; Day 28, 0.0064 μg/ml", "value": 584, "unit": "pg/mL"}, {"measurement": "p24 antigen", "setting": "[1]; Day 28, 0.032 μg/ml", "value": 0, "unit": "pg/mL"}, {"measurement": "p24 antigen", "setting": "[1]; Day 28, 0.16 μg/ml", "value": 0, "unit": "pg/mL"}, {"measurement": "p24 antigen", "setting": "[1]; Day 28, 0.8 μg/ml", "value": 0, "unit": "pg/mL"}, {"measurement": "p24 antigen", "setting": "[1]; Day 28, 4 μg/ml", "value": 0, "unit": "pg/mL"}, {"measurement": "p24 antigen", "setting": "[1]; Day 28, 20 μg/ml", "value": 0, "unit": "pg/mL"}, {"measurement": "EC50", "setting": "[2]", "value": "0.018 µg/mL and 29 nM"}, {"measurement": "suppression of acute HIV-1 replication in PBMCs (in words)", "setting": "[2]", "value": "suppression detected"}, {"measurement": "EC50", "setting": "[3]; U937 cell line", "value": 0.00128, "unit": "µg/mL"}, {"measurement": "EC50", "setting": "[3]; U937 cells", "value": 2.1, "unit": "nM"}, {"measurement": "suppression of acute HIV-1 replication in U937 cells (in words)", "setting": "[3]; U937 cells", "value": "suppression detected"}]}
{"smiles": "CC(=O)O[C@@H]1[C@H](OC(=O)CC(C)C)c2c(ccc3ccc(=O)oc23)OC1(C)C", "note": "[Suksdorfin, suksdorfin]", "values": [{"measurement": "EC50", "setting": "[2]", "value": 3900, "unit": "nM"}, {"measurement": "EC50", "setting": "[2]; Table 6", "value": 1.5, "unit": "µg/mL"}, {"measurement": "suppression of acute HIV-1 replication in PBMCs (in words)", "setting": "[2]", "value": "can suppress an acute HIV-1 replication"}, {"measurement": "EC50", "setting": "[3]; U937 cell line", "value": 0.58, "unit": "µg/mL"}, {"measurement": "EC50", "setting": "[3]; U937 cells", "value": 1500, "unit": "nM"}, {"measurement": "Therapeutic Index", "setting": "[3]; U937 cell line, 5760 min", "value": "> 34.5"}, {"measurement": "suppression of acute HIV-1 replication in U937 cells (in words)", "setting": "[3]; U937 cells", "value": "can suppress an acute HIV-1 replication"}, {"measurement": "EC50 from U937 cells relative to that for PBMCs", "setting": "[3]; U937 versus PBMCs", "value": "approximately one third"}, {"measurement": "toxicity to H9 cells", "setting": "uninfected H9 cells; 20 μg/ml", "value": "toxic to H9 cells"}]}
